Measured values reported in patent US20260364056A1, “METHODS OF TREATMENT OF NON-PANCREATIC GASTROINTESTINAL CANCERS” (IONCTURA bv, priority 2023, published 2026).

Tests used:
[1] = tested on: HLE cells; assay: Transwell migration assay; type: cell-based, human; settings: 12 μM, 24 h, serum-free medium in upper chamber
Procedure: (§1) Cell culture inserts with […] pores (Corning, inc.) were coated with 50 μl of a 10 mg/ml Collagen type 1 solution (Gibco). 1.5×10^4 cells were plated in the upper chamber in serum-free medium, in absence or presence of 12 μM Compound 1, while the bottom wells were filled with complete medium. The cells were allowed to migrate across the membrane for at least 16 h. After incubation, the cells were fixed with PFA 4% for 10′ and stained with 0.02% crystal violet for 10′. The excess dye was washed off with tap water and the non-migrated cells were scraped off from the upper surface of the membrane with a cotton swab. Cell migratory ability was assessed by counting the average number of cells at least 5 field at 10× magnification.
(§2) Images were taken at time 0, 24 h and 48 h and cell migration into the cell-free region (outlined) was quantified.
(§3) Tumor progression is characterized by an enhanced cell motility and invasiveness. To expand upon the knowledge of the effects of Compound 1 on HLE, KKU-m213 and HT-29 cells, their migratory activity was assessed when treated with Compound 1 by using both, a wound healing and a transwell migration assay. Cells were seeded in a 12-well plate and, when a confluent monolayer was reached, an artificial gap was generated between the cells using a pipette tip. The scratch closure of migrating cells was observed after […]. […] In HLE cells a 3 μM concentration of Compound 1 is already sufficient to cause a 40% inhibition of cell migration. […] (FIG. 3B).

[2] = tested on: HT-29 cells; assay: Transwell migration assay; type: cell-based, human; settings: 12 μM, 24 h, serum-free medium in upper chamber
Procedure: as §1, §2, §3

[3] = tested on: KKU-M213 cells; assay: Transwell migration assay; type: cell-based, human; settings: 12 μM, 24 h, serum-free medium in upper chamber
Procedure: as §1, §2, §3

[4] = tested on: HLE cells; assay: Annexin V staining (early apoptosis); type: cell-based, human; settings: 9 and 12 mM (so in the source), 4 h, serum-free; same effect = significantly (p<0.05) induced cell apoptosis
Procedure: (§4) For detection of early apoptosis the Annexin V-FITC kit (Miltenyi Biotech) was used. Cells were seeded and grown on Nunc Lab-Tek II Chamber Slide. After a wash with PBS, cells were incubated with Compound 1 3, 9 and 12 μM in serum-free medium. After […] cells were washed with Binding Buffer (BB) and stained with a solution of Annexin V-FITC antibody in BB for 15′. After 2 washes with BB the cells were fixed with a 4% paraformaldehyde solution and a coverslip was mounted onto the slide using a DAPI Ready Made Solution with Antifade (Merck). Images were acquired using a confocal microscope Nikon Eclipse Ti2 and analysed with image-J.
(§5) Fluorescence microscopy of cells treated with 3, 9 and 12 μM Compound 1 for 4 h and stained with Annexin V-FITC antibody. Annexin V positive cells are early apoptotic cells. Green fluorescence (Annexin V) was quantified using ImageJ software and correlated to DAPI blue fluorescence (nuclei).
(§6) To further explore the activity of Compound 1 on gastrointestinal cancer cells, the effectiveness on cell apoptosis was investigated. Following incubation with Compound 1, cells underwent morphological changes of cell shrinkage and cytoplasmic vacuolization (FIG. 1C). An early event in apoptosis is represented by the loss of plasma membrane asymmetry, resulting in the translocation of phosphatidylserine (PS) from the inner to the outer plasma membrane leaflet. Exposed PS on the cell surface can be used to measure apoptosis by the binding with Annexin V. KKU-M213, HLE and HT-29 cells were incubated with increasing concentrations of Compound 1 (3, 9 and 12 μM). After 4 hours, cells were stained with a FITC-Annexin V antibody and fixed. […] Moreover, a human apoptosis antibody array was used to identify the differential expression of 43 apoptosis-related proteins in cells treated with 12 μM Compound 1 for 24 h compared to untreated cells.

[5] = tested on: HT-29 cells; assay: Annexin V staining (early apoptosis); type: cell-based, human; settings: 3, 9 and 12 mM (so in the source), 4 h, serum-free, dose dependent
Procedure: as §4, §5, §6

[6] = tested on: KKU-M213 cells; assay: Annexin V staining (early apoptosis); type: cell-based, human; settings: 3, 9 and 12 mM (so in the source), 4 h, serum-free, dose dependent
Procedure: as §4, §5, §6

[7] = tested on: KKU-M213 cells; assay: Crystal violet staining and morphology under inverted light microscope; type: cell-based, human; settings: 3, 9 and 12 μM, 72 h
[8] = tested on: Intrahepatic cholangiocarcinoma cancer cells (patient-derived organoid cultures); assay: Patient-derived organoid formation/growth; type: cell-based; settings: 3, 9 and 12 μm (so in the source), 14 days, compared to vehicle, P<0.001
Procedure: To further explore the activity of Compound 1 on gastrointestinal cancer cells, the effectiveness on organoid formation was investigated. Intrahepatic cholangiocarcinoma cancer cells were isolated from tumour tissues, counted and embedded in 96-well plate with Matrigel. After 3D-model formation, three different concentrations of Compound 1 (3, 9 and 12 μm) were tested in these patient-derived organoid (PDO) cultures. […] Scale bars correspond to 50 μm, Data are presented as the mean±SD; ***P<0.001.

[9] = tested on: xenografted tumours of KKUM-213 cells and human cancer-associated fibroblasts; assay: Tumour growth in vivo, mouse xenograft model of cholangiocarcinoma; settings: 10 mg/kg twice daily, oral gavage, from 5th day, vs vehicle, n=5, Mann-Whitney P<0.05
Procedure: To further explore the activity of Compound 1 on gastrointestinal cancer cells in vivo, the effectiveness in a mouse model of cholangiocarcinoma was investigated. Xenografted tumours were produced by co-injection of KKUM-213 cells and human cancer-associated fibroblasts (CAFs). Starting from the 5th day the mice were treated twice daily with Compound 1 (10 mg/kg) or vehicle (1% (w/v) methylcellulose in water) by oral gavage. The tumour volumes were monitored twice a week until the animals were sacrificed. […] Data are presented as the mean±SD (n=5 mice per group; Mann-Whitney test:*P<0.05).

[10] = tested on: ATX; settings: cited from earlier work
[11] = tested on: lung fibrosis; settings: compared with GLPG1690; cited from earlier work
[12] = tested on: pancreatic cancer; settings: compared with gemcitabine; cited from earlier work
[13] = tested on: ATX; settings: cited from earlier work; remark: listed apart in the source

C[C@H](NC(=O)CCc1nc2cccnc2n1Cc1ccc(OC(F)(F)F)cc1)c1ccc(Cl)cc1 [Compound 1, N-[(S)-1-(4-chloro-phenyl)-ethyl]-3-[3-(4-trifluoromethoxy-benzyl)-3H-imidazo[4,5-b]pyridin-2-yl]-propionamide]
migratory capacity (migrated cells through the membrane) [1]: significantly inhibited migratory capacity | migratory capacity (migrated cells through the membrane) [2]: significantly inhibited migratory capacity | migratory capacity (migrated cells through the membrane) [3]: significantly inhibited migratory capacity | induction of cell apoptosis (Annexin V) [4]: the same effect was seen | induction of cell apoptosis (Annexin V) [5]: significantly (p<0.05) induced cell apoptosis | induction of cell apoptosis (Annexin V) [6]: significantly (p<0.05) induced cell apoptosis | morphological changes [7]: cells exhibit morphological changes and characteristics of apoptosis such as cell shrinkage and cytoplasmic vacuolization | organoid growth inhibition [8]: significant organoid growth inhibition | tumour progression (tumour volume) [9]: significantly reduces tumour progression | ATX inhibition [10]: inhibits ATX with high selectivity | reduction in fibrosis score [11]: greater reduction in fibrosis score compared with GLPG1690 | activity in pancreatic cancer model [12]: comparable activity with gemcitabine | binding site on ATX [13]: does not bind to the catalytic zinc region of ATX but binds to both the substrate pocket and the LPA carrier channel
